# pIC50: −log10 of the molar value.
# System: LG0567-F671-PDC KRAS tumor spheroid viability
# Assay: Anticancer human tumor LG0567-F671-PDC patient-derived lung adenocarcinoma cell line growth inhibition [KRAS2]
# Conditions: spheroids with HUVEC and MSC; for pIC50: curve of first compound; for viability, T/C: stronger effect = lower value
# Procedure, shortened: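 KRAS-mutant tumor cells were grown as spheroids with HUVEC endothelial cells and human MSCs as stroma. Targeted agents were tested alone and with KRAS pathway inhibitors. Doses started at or near clinical Cmax, or 10 microM, descending half-log.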
# [1] = second compound 0.0316 µM, first compound 0.0316 µM
# [2] = second compound 0.0316 µM, first compound 0.1 µM
# [3] = second compound 0.1 µM, first compound 0.0316 µM
# [4] = second compound 0.1 µM, first compound 0.1 µM
# [5] = second compound 0.1 µM, first compound 0.316 µM
# [6] = second compound 0.1 µM, first compound 1 µM
# [7] = second compound 0.1 µM, first compound 3.16 µM
# [8] = second compound 0.316 µM, first compound 0.0316 µM
# [9] = second compound 0.316 µM, first compound 0.1 µM
# [10] = second compound 0.316 µM, first compound 0.316 µM
# [11] = second compound 0.316 µM, first compound 1 µM
# [12] = second compound 0.316 µM, first compound 3.16 µM
# [13] = second compound 1 µM, first compound 0.0316 µM
# [14] = second compound 1 µM, first compound 0.1 µM
# [15] = second compound 1 µM, first compound 0.316 µM
# [16] = second compound 1 µM, first compound 1 µM
# [17] = second compound 1 µM, first compound 3.16 µM
# [18] = second compound 3.16 µM, first compound 0.0316 µM
# [19] = second compound 3.16 µM, first compound 0.1 µM
# [20] = second compound 3.16 µM, first compound 0.316 µM
# [21] = second compound 3.16 µM, first compound 1 µM
# [22] = second compound 3.16 µM, first compound 3.16 µM
# [23] = second compound 0.1 µM, first compound 0.000316 µM
# [24] = second compound 0.1 µM, first compound 0.001 µM
# [25] = second compound 0.1 µM, first compound 0.00316 µM
# [26] = second compound 0.1 µM, first compound 0.01 µM
# [27] = second compound 0.316 µM, first compound 0.000316 µM
# [28] = second compound 0.316 µM, first compound 0.001 µM
# [29] = second compound 0.316 µM, first compound 0.00316 µM
# [30] = second compound 0.316 µM, first compound 0.01 µM
# [31] = second compound 1 µM, first compound 0.000316 µM
# [32] = second compound 1 µM, first compound 0.001 µM
# [33] = second compound 1 µM, first compound 0.00316 µM
# [34] = second compound 1 µM, first compound 0.01 µM
# [35] = second compound 3.16 µM, first compound 0.000316 µM
# [36] = second compound 3.16 µM, first compound 0.001 µM
# [37] = second compound 3.16 µM, first compound 0.00316 µM
# [38] = second compound 3.16 µM, first compound 0.01 µM
# [39] = second compound 10 µM, first compound 0.01 µM
# [40] = second compound 10 µM, first compound 0.0316 µM
# [41] = second compound 10 µM, first compound 0.1 µM
# 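Note: drug exposure lasted seven days after spheroids formed for three days.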
# 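Throughout, for viability, T/C: 100% = DMSO vehicle control viability.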
smiles,measurement,setting,value
O=C(c1cc(Cc2n[nH]c(=O)c3ccccc23)ccc1F)N1CCN(C(=O)C2CC2)CC1 + C=CC(=O)N1CCN(c2nc(OCC3CCCN3C)nc3c2CCN(c2cccc4cccc(C)c24)C3)CC1CC#N,pIC50,second compound 0.0316 µM,> 7.50
same,pIC50,second compound 0.1 µM,> 7.50
same,pIC50,second compound 0.316 µM,> 7.50
same,pIC50,second compound 1 µM,> 7.50
same,pIC50,second compound 3.16 µM,> 7.50
same,"viability, T/C",[1],33.1%
same,"viability, T/C",[2],28.8%
same,"viability, T/C","second compound 0.0316 µM, first compound 0.316 µM",89.6%
same,"viability, T/C","second compound 0.0316 µM, first compound 1 µM",26%
same,"viability, T/C","second compound 0.0316 µM, first compound 3.16 µM",30%
same,"viability, T/C","second compound 0.0316 µM, first compound 10 µM",30.3%
same,"viability, T/C",[3],21.3%
same,"viability, T/C",[4],22.5%
same,"viability, T/C",[5],23.6%
same,"viability, T/C",[6],24.1%
same,"viability, T/C",[7],27.9%
same,"viability, T/C","second compound 0.1 µM, first compound 10 µM",34.4%
same,"viability, T/C",[8],25.6%
same,"viability, T/C",[9],26%
same,"viability, T/C",[10],24.1%
same,"viability, T/C",[11],24.4%
same,"viability, T/C",[12],23.6%
same,"viability, T/C","second compound 0.316 µM, first compound 10 µM",29.6%
same,"viability, T/C",[13],27.9%
same,"viability, T/C",[14],28.3%
same,"viability, T/C",[15],26%
same,"viability, T/C",[16],25.6%
same,"viability, T/C",[17],25.8%
same,"viability, T/C","second compound 1 µM, first compound 10 µM",30.9%
same,"viability, T/C",[18],30.1%
same,"viability, T/C",[19],29.2%
same,"viability, T/C",[20],33.1%
same,"viability, T/C",[21],30.4%
same,"viability, T/C",[22],35.4%
same,"viability, T/C","second compound 3.16 µM, first compound 10 µM",24.3%
Cn1nccc1Nc1nccc(-c2cc3c(s2)C(C)(C)N(CCN2CCOCC2)C3=O)n1,"viability, T/C",compound 0.0316 µM,95.8% [middle of 5 runs]
same,"viability, T/C",compound 0.1 µM,89.5% [middle of 5 runs]
same,"viability, T/C",compound 0.316 µM,74.6% [middle of 5 runs]
same,"viability, T/C",compound 1 µM,53.3% [middle of 5 runs]
same,"viability, T/C",compound 3.16 µM,37.5% [middle of 4 runs]
same,"viability, T/C",compound 10 µM,30.1% [middle of 5 runs]
same,IC50,curve of compound,1.25 µM [middle of 5 runs]
CN(C)C/C=C/C(=O)Nc1cc2c(Nc3ccc(F)c(Cl)c3)ncnc2cc1O[C@H]1CCOC1 + C=CC(=O)N1CCN(c2nc(=O)n(-c3c(C)ccnc3C(C)C)c3nc(-c4c(O)cccc4F)c(F)cc23)C(C)C1,pIC50,second compound 0.1 µM,> 9.50
same,pIC50,second compound 0.316 µM,> 9.50
same,pIC50,second compound 1 µM,> 9.50
same,pIC50,second compound 3.16 µM,> 9.50
same,pIC50,second compound 10 µM,> 9.50
same,"viability, T/C",[23],32.6%
same,"viability, T/C",[24],26.2%
same,"viability, T/C",[25],23.1%
same,"viability, T/C",[26],18.4%
same,"viability, T/C",[3],15.4%
same,"viability, T/C",[4],26.1%
same,"viability, T/C",[27],28.6%
same,"viability, T/C",[28],28.2%
same,"viability, T/C",[29],26.1%
same,"viability, T/C",[30],21.6%
same,"viability, T/C",[8],24.1%
same,"viability, T/C",[9],28.4%
same,"viability, T/C",[31],25.1%
same,"viability, T/C",[32],24.7%
same,"viability, T/C",[33],24.5%
same,"viability, T/C",[34],26.2%
same,"viability, T/C",[13],27.5%
same,"viability, T/C",[14],24.4%
same,"viability, T/C",[35],18.6%
same,"viability, T/C",[36],22.9%
same,"viability, T/C",[37],26.1%
same,"viability, T/C",[38],14.5%
same,"viability, T/C",[18],21.8%
same,"viability, T/C",[19],22.5%
same,"viability, T/C","second compound 10 µM, first compound 0.000316 µM",23%
same,"viability, T/C","second compound 10 µM, first compound 0.001 µM",22.9%
same,"viability, T/C","second compound 10 µM, first compound 0.00316 µM",15.8%
same,"viability, T/C",[39],13.1%
same,"viability, T/C",[40],18.5%
same,"viability, T/C",[41],13.3%
CC(=O)OC12COC1CC(O)C1(C)C(=O)C(O)C3=C(C)C(OC(=O)C(O)C(NC(=O)OC(C)(C)C)c4ccccc4)CC(O)(C(OC(=O)c4ccccc4)C21)C3(C)C (configuration not stated) + COc1cc2nc(C)nc(NC(C)c3cc(N)cc(C(F)(F)F)c3)c2cc1OC1CCOC1,pIC50,second compound 0.1 µM,< 5.50
same,pIC50,second compound 0.316 µM,> 8.00
same,pIC50,second compound 1 µM,< 5.50
same,pIC50,second compound 3.16 µM,> 8.00
same,pIC50,second compound 10 µM,< 5.50
same,"viability, T/C",[26],55.8%
same,"viability, T/C",[3],52.6%
same,"viability, T/C",[4],53.9%
same,"viability, T/C",[5],57.9%
same,"viability, T/C",[6],72.3%
same,"viability, T/C",[7],58.7%
same,"viability, T/C",[30],48.6%
same,"viability, T/C",[8],40%
same,"viability, T/C",[9],52.4%
same,"viability, T/C",[10],45.4%
same,"viability, T/C",[11],51%
same,"viability, T/C",[12],47.6%
same,"viability, T/C",[34],54.9%
same,"viability, T/C",[13],69.2%
same,"viability, T/C",[14],69.7%
same,"viability, T/C",[15],70.5%
same,"viability, T/C",[16],78.8%
same,"viability, T/C",[17],50.3%
same,"viability, T/C",[38],50.5%
same,"viability, T/C",[18],46.9%
same,"viability, T/C",[19],56.3%
same,"viability, T/C",[20],48.9%
same,"viability, T/C",[21],57.1%
same,"viability, T/C",[22],59.1%
same,"viability, T/C",[39],62.7%
same,"viability, T/C",[40],58.1%
same,"viability, T/C",[41],53.8%
same,"viability, T/C","second compound 10 µM, first compound 0.316 µM",54.6%
same,"viability, T/C","second compound 10 µM, first compound 1 µM",64.4%
same,"viability, T/C","second compound 10 µM, first compound 3.16 µM",62.2%
CN(C)C/C=C/C(=O)Nc1cc2c(Nc3ccc(F)c(Cl)c3)ncnc2cc1O[C@H]1CCOC1 + C=CC(=O)N1CCN(c2nc(OCC3CCCN3C)nc3c2CCN(c2cccc4cccc(C)c24)C3)CC1CC#N,pIC50,second compound 0.0316 µM,> 9.50
same,pIC50,second compound 0.1 µM,> 9.50
same,pIC50,second compound 0.316 µM,> 9.50
same,pIC50,second compound 1 µM,> 9.50
same,pIC50,second compound 3.16 µM,> 9.50
same,"viability, T/C","second compound 0.0316 µM, first compound 0.000316 µM",39.3%
same,"viability, T/C","second compound 0.0316 µM, first compound 0.001 µM",40.4%
same,"viability, T/C","second compound 0.0316 µM, first compound 0.00316 µM",41.9%
same,"viability, T/C","second compound 0.0316 µM, first compound 0.01 µM",29.8%
same,"viability, T/C",[1],30.4%
same,"viability, T/C",[2],23.5%
same,"viability, T/C",[23],38.1%
same,"viability, T/C",[24],32%
same,"viability, T/C",[25],26.5%
same,"viability, T/C",[26],34.5%
same,"viability, T/C",[3],25.8%
same,"viability, T/C",[4],18.5%
same,"viability, T/C",[27],24.8%
same,"viability, T/C",[28],28.8%
same,"viability, T/C",[29],34.4%
same,"viability, T/C",[30],30.4%
same,"viability, T/C",[8],32.1%
same,"viability, T/C",[9],20.1%
same,"viability, T/C",[31],29.3%
same,"viability, T/C",[32],32.6%
same,"viability, T/C",[33],25.1%
same,"viability, T/C",[34],22.2%
same,"viability, T/C",[13],21.2%
same,"viability, T/C",[14],19%
same,"viability, T/C",[35],26.5%
same,"viability, T/C",[36],10.8%
same,"viability, T/C",[37],15.7%
same,"viability, T/C",[38],6.55%
same,"viability, T/C",[18],10.2%
same,"viability, T/C",[19],11.3%
